Measurements taken from publication PMC4326489, “Efficacy and pharmacokinetic evaluation of a novel anti-malarial compound (NP046) in a mouse model” (Malaria Journal, 2015).
≈ marks a conversion by molar mass, not a printed value.

How the values were obtained:
[1] = test system: Plasmodium berghei transfected with green fluorescence protein (strain ANKA); test: In vivo efficacy (four-day dosing) in P. berghei-infected mice, % parasitaemia by flow cytometry; parameters: species or system Plasmodium berghei in male C57BL/6 mice; conditions: 10 mg/kg oral, day five post-infection
Procedure: Plasmodium berghei transfected with green fluorescence protein (strain ANKA), a chloroquine-sensitive strain, was stored in liquid nitrogen. Parasites were thawed and administered intraperitoneally (IP) to infect two donor mice a week before the experiment commenced. […] Finally, each of the test animals received 200 μl of the P. berghei-infected RBCs (1×10^7 per 200 μl PBS) IP to infect them with the parasite. There were three animals per dose group, and each of them received 200 μl of NP046 in water orally and intravenously (volume adjusted relative to the weight of mouse) at their respective dose concentration as shown below:
The test compound was administered to the animals once a day for four days. […] Blood samples were collected via tail bleeding in tubes containing PBS on day 5, and % parasitaemia was determined with FACSCalibur™ using the software CellQuestPro [5].
Finally, the percentage parasite growth inhibition was calculated using the following equation [6]: [drawing 1]

[2] = Kinetic solubility (HPLC-UV); assay type: physicochemical; conditions: aqueous buffer, kinetic from dmso stock, PBS pH 2.0
Procedure: The concentration of the test compound (x) in PBS samples was calculated from the peak area (y) in its UV chromatogram by extrapolation from the three-point calibration line, using the equation y = ax + b; where a = slope and b = intercept.
Summary of the assay method for the determination kinetic solubility:
PBS was prepared and its pH adjusted to 2.0 and 7.4
primary stock solutions of the test compounds and controls (reserpine and hydrocortisone) in DMSO at 10 mM were prepared
Samples were briefly vortex mixed
samples were incubated for 2 hours while mixing in an incubator with orbital shaker at 200 rpm
samples were centrifuged at 3500 rpm for 15 minutes at 22 °C
the supernatant of the standards were transferred from the clear 96-well plate into an opaque, round bottom 96-well analysis plate, while the aqueous samples were filtered using a vacuum manifold through a multi-screen filter plate (MSRLN 0450, 0.4 µM), into the same opaque, round bottom 96-well plate
samples were analysed using HPLC-UV method by injecting the STDs in duplicate, and the samples in singlet.

CCN(CC)CCCC(C)Nc1ccnc2cc(Cl)ccc12 (stereo not drawn) [Positive control, chloroquine phosphate, reference compound]
% growth inhibition ([1]; relative to negative control (placebo)): 100%
% parasitaemia ([1]; once a day for four days, mean ± S.E.M): 0.01 ± 0.0%

COC(=O)[C@H]1[C@H]2C[C@@H]3c4[nH]c5cc(OC)ccc5c4CCN3C[C@H]2C[C@@H](OC(=O)c2cc(OC)c(OC)c(OC)c2)[C@@H]1OC [Reserpine, reference compound]
solubility at 2 h [2]: 193 µM (≈ 117 µg/mL)
